The values that follow come from publication PMC11483378, “Triazole-Based Thiamine Analogues as Inhibitors of Thiamine Pyrophosphate-Dependent Enzymes: 1,3-Dicarboxylate for Metal Binding” (ACS Omega, 2024).

The nature of series [1]: PAMPA (parallel artificial membrane permeability assay). The class given is in vitro ADME. As to the method: PAMPA – methods and results (Table S2)
PAMPA was carried out in 96-well microtiter filter plates obtained from Millipore as described1 with some modifications. Each well of the filter plate was impregnated with 15 µL of 5% hexadecane dissolved in hexane (i.e. total amount of hexadecane: 0.75 µL) for at least 10 minutes in ventilated environment to allow for complete evaporation of hexane. Donor compartments were filled with 200 µL compound-containing donor solutions of compounds dissolved in 5% DMSO, phosphate buffered saline PBS) and connected to acceptor plate prefilled with buffer (5% DMSO in PBS, pH 7.4). The resulting sandwich was incubated at room temperature under gentle shaking and wrapped in wet paper towels to avoid evaporation. After 10 hours, the sandwich was disassembled and the solutions in the acceptor and donor were transferred to a disposable UV-transparent plate. UV absorption was measured at wavelengths between 220 and 340 nm using a microplate reader (CLARIOstar).
Compounds were tested at 500 µM. Calibration to determine concentration of compounds were performed with varying compound concentrations in buffer (5% DMSO in PBS).
The artificial membrane permeability is expressed as fraction absorbed (Fa%)2 or log Pe (log of the effective permeability)1. LogD values at pH 7.4 were calculated using MarvinSketch.
Fa% = 100 ∙CA ∙VA / CD0 ∙ VD where: CA = final drug concentration in the acceptor well (µM)
VA = volume in the acceptor well (cm3)
CD0 = Initial drug concentration in the donor well (µM)
VD = volume in the donor well (cm3) log P (cm/s) = log -ln 1-CA/Cequilibrium
S = surface area (cm2), typically 0.268 cm2
Cequilibrium = theoretical equilibrium concentration = [CD ∙VD+CA ∙VA] / [VD+VA] where: CD = final drug concentration in the donor well (µM)
CA = final drug concentration in the acceptor well (µM)
Table S2. Permeability data.
Compounds Fa (%) PAMPA log Pe (cm/s) cLogD (pH = 7.4)
(The PAMPA barrier holds no transporters, so it reflects passive diffusion.)

A further series concerns the target T1, Porcine PDH E1 (Sus scrofa, UniProt P29804).
T1 sequence (P29804 31-390): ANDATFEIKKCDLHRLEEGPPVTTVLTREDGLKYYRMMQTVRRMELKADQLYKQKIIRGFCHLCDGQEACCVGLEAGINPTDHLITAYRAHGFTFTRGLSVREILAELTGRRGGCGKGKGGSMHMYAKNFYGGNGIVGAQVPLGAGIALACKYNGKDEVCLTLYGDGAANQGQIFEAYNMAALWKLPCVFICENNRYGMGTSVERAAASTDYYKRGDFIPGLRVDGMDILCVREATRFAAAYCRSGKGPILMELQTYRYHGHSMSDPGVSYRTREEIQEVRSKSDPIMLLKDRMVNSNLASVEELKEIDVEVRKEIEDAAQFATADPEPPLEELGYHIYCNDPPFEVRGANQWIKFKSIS
Set-up: method as in PMID 37201323. Particulars: assay conditions of previous study; cited from earlier work.

The target in another series is T2, S. cerevisiae PDC (Saccharomyces cerevisiae, UniProt P06169).
T2 construct: purchased Sigma
T2 sequence (P06169 2-563 limits assumed): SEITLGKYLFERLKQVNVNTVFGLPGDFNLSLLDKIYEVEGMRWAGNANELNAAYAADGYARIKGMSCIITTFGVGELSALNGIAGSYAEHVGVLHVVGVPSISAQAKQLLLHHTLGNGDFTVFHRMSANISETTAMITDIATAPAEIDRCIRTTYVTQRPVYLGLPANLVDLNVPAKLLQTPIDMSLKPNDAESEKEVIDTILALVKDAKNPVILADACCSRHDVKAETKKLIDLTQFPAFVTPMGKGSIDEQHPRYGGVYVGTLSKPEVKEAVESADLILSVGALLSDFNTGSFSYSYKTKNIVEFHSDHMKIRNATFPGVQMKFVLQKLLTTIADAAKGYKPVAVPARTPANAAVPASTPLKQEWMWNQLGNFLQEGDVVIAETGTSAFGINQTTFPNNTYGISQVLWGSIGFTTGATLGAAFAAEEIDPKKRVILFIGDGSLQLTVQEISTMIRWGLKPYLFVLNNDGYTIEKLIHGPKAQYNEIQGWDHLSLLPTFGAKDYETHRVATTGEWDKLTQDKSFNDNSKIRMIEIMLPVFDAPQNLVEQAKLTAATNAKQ
Further details: method as in PMID 37201323. Conditions: assay conditions of previous study; cited from earlier work.

In another series the target is A. viridans PO (Aerococcus viridans, UniProt A9X9K8). Further details: method as in PMID 37201323. Conditions: assay conditions of previous study; cited from earlier work.
The target in the next series is E. coli OGDH E1 (Escherichia coli, UniProt P0AFG3). Further details: method as in PMID 37201323. Particulars: assay conditions of previous study; cited from earlier work.
E. coli OGDH E1, sequence (P0AFG3 whole entry): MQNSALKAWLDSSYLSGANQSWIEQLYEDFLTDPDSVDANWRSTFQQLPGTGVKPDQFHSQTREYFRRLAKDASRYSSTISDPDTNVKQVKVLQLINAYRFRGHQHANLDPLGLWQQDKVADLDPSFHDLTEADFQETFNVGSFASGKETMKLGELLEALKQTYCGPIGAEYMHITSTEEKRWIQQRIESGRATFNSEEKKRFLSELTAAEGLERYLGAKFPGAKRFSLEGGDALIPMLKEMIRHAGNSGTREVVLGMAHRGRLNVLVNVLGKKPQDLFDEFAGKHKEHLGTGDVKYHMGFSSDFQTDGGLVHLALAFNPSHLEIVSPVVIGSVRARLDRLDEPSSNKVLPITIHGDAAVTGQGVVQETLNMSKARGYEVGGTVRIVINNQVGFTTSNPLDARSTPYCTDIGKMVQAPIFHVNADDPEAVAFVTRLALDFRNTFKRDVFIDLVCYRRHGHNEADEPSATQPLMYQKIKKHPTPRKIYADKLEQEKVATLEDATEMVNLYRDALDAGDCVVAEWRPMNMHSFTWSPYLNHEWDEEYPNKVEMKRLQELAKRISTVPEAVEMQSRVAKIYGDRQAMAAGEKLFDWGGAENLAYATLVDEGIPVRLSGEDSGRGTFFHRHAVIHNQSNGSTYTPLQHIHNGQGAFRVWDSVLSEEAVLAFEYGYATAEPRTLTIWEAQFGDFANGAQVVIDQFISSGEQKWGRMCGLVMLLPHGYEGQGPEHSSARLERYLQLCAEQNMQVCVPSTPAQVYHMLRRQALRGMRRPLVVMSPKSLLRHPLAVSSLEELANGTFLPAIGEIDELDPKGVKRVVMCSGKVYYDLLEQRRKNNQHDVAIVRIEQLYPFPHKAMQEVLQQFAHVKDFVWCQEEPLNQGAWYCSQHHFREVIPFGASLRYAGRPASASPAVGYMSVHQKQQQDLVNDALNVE

A. viridans PO, sequence (A9X9K8 entry or part of it): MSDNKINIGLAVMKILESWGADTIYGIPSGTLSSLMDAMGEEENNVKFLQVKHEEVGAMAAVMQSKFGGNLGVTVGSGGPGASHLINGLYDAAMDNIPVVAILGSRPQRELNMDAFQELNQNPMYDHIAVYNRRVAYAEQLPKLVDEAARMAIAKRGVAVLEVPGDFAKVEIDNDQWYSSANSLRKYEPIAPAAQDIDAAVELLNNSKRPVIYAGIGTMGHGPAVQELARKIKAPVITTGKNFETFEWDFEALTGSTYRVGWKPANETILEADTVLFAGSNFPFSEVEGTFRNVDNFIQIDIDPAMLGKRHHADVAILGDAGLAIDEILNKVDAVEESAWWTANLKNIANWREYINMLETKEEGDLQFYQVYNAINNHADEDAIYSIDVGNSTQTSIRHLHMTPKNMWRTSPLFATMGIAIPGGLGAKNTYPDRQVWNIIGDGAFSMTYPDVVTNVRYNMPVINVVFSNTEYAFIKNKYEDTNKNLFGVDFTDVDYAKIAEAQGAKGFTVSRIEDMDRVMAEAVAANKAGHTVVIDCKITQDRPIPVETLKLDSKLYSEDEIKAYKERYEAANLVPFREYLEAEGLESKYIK

For `Cc1ncc(Cn2cc(CCOP(=O)(O)O)nn2)c(N)n1` [compound 5], in series [1], the “membrane permeability in PAMPA (in words)” value is on record as “membrane-impermeable”. In series [1] (PAMPA, compounds at 500 µM, 5% DMSO in PBS pH 7.4, 10 hours, room temperature, read-out: PAMPA log Pe (converted)), the Papp at 10 h, 500 µM is 0.398 ×10⁻⁶ cm/s. For the same compound, the “Fa (fraction absorbed)” value in series [1] (compounds at 500 µM, 5% DMSO in PBS pH 7.4, 10 hours, room temperature) is 2%. For the same compound, the IC50 (usually the concentration that gives 50% inhibition) on Porcine PDH E1 was 6.6 µM; on S. cerevisiae PDC, 1300 µM; at A. viridans PO it was 348 µM; at E. coli OGDH E1, 170 µM.
